Source: US6579899B1, “Composition for treatment of stress” (Massachusetts Institute of Technology, priority 1998, dated 2003)
Where a name gives a salt, the structure may show the parent alone.

Assays:
[1] = system: obese, stressed patients; assay: questionnaire rating appetite and hunger; format: in vivo, human; set-up: Appetite and Cravings: scale not given here
Excerpt: (§1) A subgroup of obese individuals is identified, which individuals describe themselves as being unable to control their eating and who attempt to continue on a weight-reducing diet when experiencing emotional distress. […]
(§2) Objective measurements of emotional distress are made in some patients using the CES-D (Center for […] Depression Form) test, which measures current levels of emotional distress (Radloff, et al., The CES-D Scale: A Self Report Depression Scale for Research in the General Population Applied Psychological Measurement 1: 385-401, 1977); and the POMS (Profile of Mood States test, that assesses tension, depression, anger and confusion (McNair, et al., Profile of Mood States Manual;San Diego: Educational and Industrial Testing Service, 1971); both of these references are hereby incorporated by reference in their entirety. These tests are also given monthly during the treatment period. At the same time, patients also complete questionnaires that ask the patients to rate their appetite and hunger, and also to rate their tendency to eat in response to a variety of emotional and stressful triggers. The patients are also weighed monthly.

[2] = system: obese, stressed patients; assay: CES-D test of current levels of emotional distress in patients; format: in vivo, human
Excerpt: as §1, §2

[3] = system: obese, stressed patients; assay: questionnaire rating tendency to eat in response to emotional and stressful triggers; format: in vivo, human; set-up: Emotional Triggers: scale not given here
Excerpt: as §1, §2

[4] = system: Sprague-Dawley rats; assay: stress related eating (clamp tightened on the tail) in rats; format: in vivo, rat; conditions: for Stress Eating, relative amount with 0 mg/kg as 100% / Stressed Rats, average amount of food consumed per rat / Stress Eating / Control Rats, average amount of food consumed per rat: 8 hours; for Stressed Rats, average amount of food consumed per rat: clamp tightened on the tail; for Stress Eating: stressed minus control rats; for stress-related eating: stressed rats, 1-10 mg/kg; for Control Rats, average amount of food consumed per rat: untightened clamp
Protocol: The effect of the hydrochloride salt of 6-chloro-2-(1-piperazinyl)pyrazine (MK-212, which is obtained from Merck & Co., Inc. Whitehouse Station, N.J.), on stress related eating in animals is determined through the observation of the effect of experimental compounds on stress-related eating in adult Sprague-Dawley rats. These rats are widely used as a recognized animal model useful in predicting the effect of serotoninergic drugs in humans.
In these experiments, a group of 5 adult female and 5 adult male Sprague-Dawley rats weighing between 200 and 250 grams each are used as control animals. An untightened clamp is placed on the tail of these animals. The untightened clamp provides the unstressed condition. Each animal is placed in an individual cage and allowed free access to food. The amount of food consumed is determined at 2, 4 and 8 hours after the initiation of the trial. A similar group of rats has a clamp tightened on the tail. The amount of food consumed by this stressed group of rats is shown in the 0 mg/kg column. […] similar groups of stressed rats are injected with 1, 2, 5, or 10 mg/kg body weight of MK-212 one hour before initiation of the experiment.
The relative amounts of stress eating with the amount at 0 mg/kg MK-212 as 100% is also shown in the Stress Eating row. The preferred daily dose of MK-212 is about 1 mg/kg body weight to about 10 mg/kg body weight.

[5] = patient nine, 100 mg/day in divided doses, Month 1, baseline 9
[6] = patient nine, 100 mg/day in divided doses, Month 2, baseline 9
[7] = patient nine, 100 mg/day in divided doses, Month 3, baseline 9
[8] = patient nine, 100 mg/day in divided doses, Month 4, baseline 9
[9] = 1 mg/kg injected one hour before
[10] = 2 mg/kg injected one hour before
[11] = 5 mg/kg injected one hour before
[12] = 10 mg/kg injected one hour before

COCCCC/C(=N\OCCN)c1ccc(C(F)(F)F)cc1 [fluvoxamine maleate]
Appetite and Cravings ([1]; patient three, 50 rising to 150 mg/day, Month 1, baseline 18): 16
Appetite and Cravings ([1]; patient three, 50 rising to 150 mg/day, Month 2, baseline 18): 11
Appetite and Cravings ([1]; patient three, 50 rising to 150 mg/day, Month 3, baseline 18): 12
Appetite and Cravings ([1]; patient three, 50 rising to 150 mg/day, Month 4, baseline 18): 14
Mood Scores CES-D ([2]; patient three, 50 rising to 150 mg/day, Month 1, baseline 23): 26
Mood Scores CES-D ([2]; patient three, 50 rising to 150 mg/day, Month 2, baseline 23): 16
Mood Scores CES-D ([2]; patient three, 50 rising to 150 mg/day, Month 3, baseline 23): 15
Mood Scores CES-D ([2]; patient three, 50 rising to 150 mg/day, Month 4, baseline 23): 17
Emotional Triggers ([3]; patient three, 50 rising to 150 mg/day, Month 1, baseline 34): 27
Emotional Triggers ([3]; patient three, 50 rising to 150 mg/day, Month 2, baseline 34): 30
Emotional Triggers ([3]; patient three, 50 rising to 150 mg/day, Month 3, baseline 34): 20
Emotional Triggers ([3]; patient three, 50 rising to 150 mg/day, Month 4, baseline 34): 24

O=c1n(CCCN2CCN(c3cccc(Cl)c3)CC2)nc2ccccn12 [trazodone hydrochloride]
Appetite and Cravings [1, 5]: 5
Appetite and Cravings [1, 6]: 5
Appetite and Cravings [1, 7]: 3
Appetite and Cravings [1, 8]: 5
Mood Scores CES-D [2, 5]: 16
Mood Scores CES-D [2, 6]: 16
Mood Scores CES-D [2, 7]: 10
Mood Scores CES-D [2, 8]: 1
Emotional Triggers ([3]; patient nine, 100 mg/day in divided doses, Month 1, baseline 12): 12
Emotional Triggers ([3]; patient nine, 100 mg/day in divided doses, Month 2, baseline 12): 9
Emotional Triggers ([3]; patient nine, 100 mg/day in divided doses, Month 3, baseline 12): 5
Emotional Triggers ([3]; patient nine, 100 mg/day in divided doses, Month 4, baseline 12): 3

CN(C)CCC=C1c2ccccc2CCc2ccccc21 [amitriptyline hydrochloride]
Appetite and Cravings ([1]; patient twelve, 75 then 100 mg/day, Month 1, baseline 19): 16
Appetite and Cravings ([1]; patient twelve, 75 then 100 mg/day, Month 2, baseline 19): 8
Appetite and Cravings ([1]; patient twelve, 75 then 100 mg/day, Month 3, baseline 19): 13
Appetite and Cravings ([1]; patient twelve, 75 then 100 mg/day, Month 4, baseline 19): 8
Mood Scores CES-D ([2]; patient twelve, 75 then 100 mg/day, Month 1, baseline 29): 22
Mood Scores CES-D ([2]; patient twelve, 75 then 100 mg/day, Month 2, baseline 29): 20
Mood Scores CES-D ([2]; patient twelve, 75 then 100 mg/day, Month 3, baseline 29): 23
Mood Scores CES-D ([2]; patient twelve, 75 then 100 mg/day, Month 4, baseline 29): 18
Emotional Triggers ([3]; patient twelve, 75 then 100 mg/day, Month 1, baseline 25): 22
Emotional Triggers ([3]; patient twelve, 75 then 100 mg/day, Month 2, baseline 25): 13
Emotional Triggers ([3]; patient twelve, 75 then 100 mg/day, Month 3, baseline 25): 5
Emotional Triggers ([3]; patient twelve, 75 then 100 mg/day, Month 4, baseline 25): 3

Clc1cncc(N2CCNCC2)n1 [MK-212, 6-chloro-2-(1-piperazinyl)pyrazine]
Stress Eating, relative amount with 0 mg/kg as 100% ([4]; 1 mg/kg): (83%)
Stress Eating, relative amount with 0 mg/kg as 100% ([4]; 2 mg/kg): (76%)
Stress Eating, relative amount with 0 mg/kg as 100% ([4]; 5 mg/kg): (25%)
Stress Eating, relative amount with 0 mg/kg as 100% ([4]; 10 mg/kg): (0%)
Stressed Rats, average amount of food consumed per rat [4, 9]: 4.14 g
Stressed Rats, average amount of food consumed per rat [4, 10]: 3.78 g
Stressed Rats, average amount of food consumed per rat [4, 11]: 2.01 g
Stressed Rats, average amount of food consumed per rat [4, 12]: 0.97 g
Stress Eating ([4]; 1 mg/kg): 2.82 g
Stress Eating ([4]; 2 mg/kg): 2.58 g
Stress Eating ([4]; 5 mg/kg): 0.85 g
Stress Eating ([4]; 10 mg/kg): 0.0 g
stress-related eating [4]: reduces stress-related eating
Control Rats, average amount of food consumed per rat [4, 9]: 1.32 g
Control Rats, average amount of food consumed per rat [4, 10]: 1.20 g
Control Rats, average amount of food consumed per rat [4, 11]: 1.16 g
Control Rats, average amount of food consumed per rat [4, 12]: 1.03 g

(S)-2-(Chloro-5-fluoro-indol-1-yl)-1-methylethylamine [Ro 60-0332/ORG 35035]
Stress Eating, relative amount with 0 mg/kg as 100% ([4]; 1 mg/kg): (103%)
Stress Eating, relative amount with 0 mg/kg as 100% ([4]; 2 mg/kg): (28%)
Stress Eating, relative amount with 0 mg/kg as 100% ([4]; 5 mg/kg): (17%)
Stress Eating, relative amount with 0 mg/kg as 100% ([4]; 10 mg/kg): (13%)
Stressed Rats, average amount of food consumed per rat [4, 9]: 4.87 g
Stressed Rats, average amount of food consumed per rat [4, 10]: 2.19 g
Stressed Rats, average amount of food consumed per rat [4, 11]: 1.83 g
Stressed Rats, average amount of food consumed per rat [4, 12]: 1.74 g
Stress Eating ([4]; 1 mg/kg): 3.58 g
Stress Eating ([4]; 2 mg/kg): 0.99 g
Stress Eating ([4]; 5 mg/kg): 0.60 g
Stress Eating ([4]; 10 mg/kg): 0.46 g
stress-related eating [4]: reduces stress-related eating
Control Rats, average amount of food consumed per rat [4, 9]: 1.29 g
Control Rats, average amount of food consumed per rat [4, 10]: 1.20 g
Control Rats, average amount of food consumed per rat [4, 11]: 1.21 g
Control Rats, average amount of food consumed per rat [4, 12]: 1.28 g

COc1ccc(C(CN(C)C)C2(O)CCCCC2)cc1 (stereo not shown) [venlafaxine hydrochloride]
Appetite and Cravings ([1]; patient ten, 75 rising to 150 mg/day, Month 1, baseline 10): 6
Appetite and Cravings ([1]; patient ten, 75 rising to 150 mg/day, Month 2, baseline 10): 7
Appetite and Cravings ([1]; patient ten, 75 rising to 150 mg/day, Month 3, baseline 10): 3
Appetite and Cravings ([1]; patient ten, 75 rising to 150 mg/day, Month 4, baseline 10): 1
Mood Scores CES-D ([2]; patient ten, 75 rising to 150 mg/day, Month 1, baseline 8): 4
Mood Scores CES-D ([2]; patient ten, 75 rising to 150 mg/day, Month 2, baseline 8): 6
Mood Scores CES-D ([2]; patient ten, 75 rising to 150 mg/day, Month 3, baseline 8): 2
Mood Scores CES-D ([2]; patient ten, 75 rising to 150 mg/day, Month 4, baseline 8): 2
Emotional Triggers ([3]; patient ten, 75 rising to 150 mg/day, Month 1, baseline 14): 9
Emotional Triggers ([3]; patient ten, 75 rising to 150 mg/day, Month 2, baseline 14): 4
Emotional Triggers ([3]; patient ten, 75 rising to 150 mg/day, Month 3, baseline 14): 6
Emotional Triggers ([3]; patient ten, 75 rising to 150 mg/day, Month 4, baseline 14): 2

Cc1ccc2c(c1)-c1c(ccn1C[C@H](C)N)C2(C)C [Ro 60-175/ORG 35030, (S)-2-(4,4,7-trimethyl-1,4-dihydro-indol (1,2-B)pyrrol-1-yl)-1-methylethylamine]
Stress Eating, relative amount with 0 mg/kg as 100% ([4]; 1 mg/kg): (74%)
Stress Eating, relative amount with 0 mg/kg as 100% ([4]; 2 mg/kg): (4%)
Stress Eating, relative amount with 0 mg/kg as 100% ([4]; 5 mg/kg): (3%)
Stress Eating, relative amount with 0 mg/kg as 100% ([4]; 10 mg/kg): (1%)
Stressed Rats, average amount of food consumed per rat [4, 9]: 3.66 g
Stressed Rats, average amount of food consumed per rat [4, 10]: 1.43 g
Stressed Rats, average amount of food consumed per rat [4, 11]: 1.30 g
Stressed Rats, average amount of food consumed per rat [4, 12]: 1.16 g
Stress Eating ([4]; 1 mg/kg): 2.38 g
Stress Eating ([4]; 2 mg/kg): 0.13 g
Stress Eating ([4]; 5 mg/kg): 0.10 g
Stress Eating ([4]; 10 mg/kg): 0.03 g
stress-related eating [4]: reduces stress related eating
Control Rats, average amount of food consumed per rat [4, 9]: 1.28 g
Control Rats, average amount of food consumed per rat [4, 10]: 1.30 g
Control Rats, average amount of food consumed per rat [4, 11]: 1.20 g
Control Rats, average amount of food consumed per rat [4, 12]: 1.13 g

CCN[C@@H](C)Cc1cccc(C(F)(F)F)c1 [dexfenfluramine hydrochloride]
Appetite and Cravings ([1]; patient eleven, 30 mg/day, Month 1, baseline 9): 6
Appetite and Cravings ([1]; patient eleven, 30 mg/day, Month 2, baseline 9): 8
Appetite and Cravings ([1]; patient eleven, 30 mg/day, Month 3, baseline 9): 3
Appetite and Cravings ([1]; patient eleven, 30 mg/day, Month 4, baseline 9): 5
Mood Scores CES-D ([2]; patient eleven, 30 mg/day, Month 1, baseline 19): 5
Mood Scores CES-D ([2]; patient eleven, 30 mg/day, Month 2, baseline 19): 2
Mood Scores CES-D ([2]; patient eleven, 30 mg/day, Month 3, baseline 19): 3
Emotional Triggers ([3]; patient eleven, 30 mg/day, Month 1, baseline 30): 12
Emotional Triggers ([3]; patient eleven, 30 mg/day, Month 2, baseline 30): 13
Emotional Triggers ([3]; patient eleven, 30 mg/day, Month 3, baseline 30): 5
